Entries after “also recorded” stand apart in the source; their conditions may differ. Read-outs that look alike come from different tables or passages of the source.
Tests used:
[1] = test system: system hemodynamic indices during hemorrhagic shock; experiment: System hemodynamic indices during hemorrhagic shock (Table 4); assay type: in vivo, cats
Experimental: For the experimental model of hemorrhagic shock closely resembling acute clinical situations, acute blood loss in cats was chosen (3.2% of the body mass) which constitutes 45-47% of the blood circulation volume during 3-5 minutes. To determine maximum efficiency and effective duration, parameters of the system blood circulation were determined before blood-letting and in 30 minutes after blood-letting, as well as on the 2nd, 10th, 30th and 60th minutes after intravenous injection of the medicine.

[2] = test system: rats exposed to an oxygen pressure of 6 atm; experiment: Toxic effect of oxygen at a pressure of 6 atm in rats (Tables 16-18); assay type: in vivo, white rats; settings: 20 mg/kg i.p.
Experimental: Experiments on the toxic effect of oxygen at a pressure of 6 atm were carried out similarly in a hyperbaric chamber C-203 (chamber volume 0.45 m^3), on white rats, during 50 minutes. The preparation was injected intraperitoneally at a dose of 20 mg/kg. In the controls, 2 ml/kg of water for injections was injected intraperitoneally. After decompression the rats were decapitated and the glucose content, urea content, ureal nitrogen and total hemoglobine content were determined in the blood serum, as well as the index <<lung mass in gr./body mass in gr. X 100>> (i.e. lung coefficient).

[3] = test system: acute arterial hypotension, caused by prazosin; experiment: Acute arterial hypotension caused by prazosin (Table 3); assay type: in vivo, cats; settings: for AP / HF / Respiratory contraction frequency: 5 mg/kg i.v. after prazosin 1 mg/kg
Experimental: It was of interest to study the influence of S-ethylisothiouronium diethylphosphate the in case of hypotension caused by the injection of a known α1-adreno blocker, namely prazosin. Prazosin was injected singly intravenously at a dose of 1 mg/kg.

[4] = in vivo, cited from earlier work
[5] = test system: acid-base balance and gas composition of arterial blood; experiment: Acid-base balance and gas composition of arterial blood in hemorrhagic shock (Table 6); assay type: in vivo, cats
Experimental: The influence of S-ethylisothiouronium diethylphosphate on the major indices of the blood acid-base state (AAS) and gas content in hemorrhagic shock was studied at a dose of 5 mg/kg. The cats were narcotized intraperitoneally with pentobarbital sodium (nembutal) at a dose of 40 mg/kg. The blood loss was caused by blood-letting from the common carotid artery in an amount of 3.2% of the animal body mass, which approximately corresponds to 45-47% of the blood circulation volume. The blood-letting was carried out during 3-5 minutes. Tension characteristics of oxygen and carbon dioxide in arterial (PaO2, PaCO2) and mixed venous (PvO2, PvCO2) blood, pHa and pH were studied by Astrup micromethod. The hemoglobin content (Hb) was determined by the cianohemoglobin method. Bicarbonate ion content /HCO3 was calculated with the help of the Severinghause ruler. Calculations were carried out on the CM-1403-02 computer in the Forhtran language program. Indices of the acid-base balance and blood gas content were studied in the initial state, on the 30th minute after acute bleeding as well as on 2nd, 10th, 30th, and 60th minute after the medicine injection. The substance was injected singly intravenously on the 30th minute after the blood-letting.
In the test group (n=6), S-ethylisothiouronium diethylphosphate was injected at a dose of 5 mg/kg.

arterial blood pressure = experiment: Influence of single intravenous injection on arterial blood pressure, heart rate and respiratory rate in anesthetized cats (Table 1, FIGS. 1-10); assay type: in vivo; settings: 5 mg/kg i.v.
Experimental: Experiments were performed on 52 anesthetized (intraperitoneally with 45 mg/kg of sodium pentobarbital) cats of both genders with body mass of 2.8-4.2 kg. Arterial pressure was measured by a mercury pressure gauge; measurements were also performed by ECG. Simultaneously, the respiratory frequency was registered. The hypertensive effect was determined as percent increase relative to the initial level of systolic arterial pressure (SAP). The duration of observation was 1-3 hours; the heart rate (HR) was calculated on the basis of ECG.

[6] = 5 mg/kg i.v., 2 min after injection
[7] = 5 mg/kg i.v., 10 min after injection
[8] = 5 mg/kg i.v., 30 min after injection
[9] = 5 mg/kg i.v., 60 min after injection
[10] = listed as S-ethylisothiuronium diethylphosphate

Question: Which results are given for `CCSC(=N)N` [S-ethylisothiouronium diethylphosphate]?
Answer: AP increase compared to the 30th minute after bleeding ([1]; 5 mg/kg i.v., 2nd minute): 88%; ALV [1, 6]: 166.6 ± 18.4 g/cm; AP [1, 6]: 122.3 ± 6.0 mm Hg; Central blood volume [1, 6]: 58.6 ± 4.1 mL; HF [1, 6]: 182.0 ± 15.0 per min.; MVC [1, 6]: 52.4 ± 6.0 mL/min/kg; Number of blood circulations [1, 6]: 2.9 ± 0.2 min; Pr [1, 6]: 202.8 ± 28.7 10^3 . din . c . cm^-3; Stroke volume [1, 6]: 1.0 ± 0.1 mL; ALV [1, 7]: 130.5 ± 15.4 g/cm; AP [1, 7]: 112.5 ± 7.6 mm Hg; Central blood volume [1, 7]: 49.2 ± 4.5 mL; HF [1, 7]: 186.0 ± 14.1 per min.; MVC [1, 7]: 46.0 ± 5.7 mL/min/kg; Number of blood circulations [1, 7]: 3.0 ± 0.2 min; Pr [1, 7]: 225.1 ± 56.6 10^3 . din . c . cm^-3; Stroke volume [1, 7]: 0.9 ± 0.1 mL; ALV [1, 8]: 75.9 ± 19.4 g/cm; AP [1, 8]: 87.5 ± 15.4 mm Hg; Central blood volume [1, 8]: 43.2 ± 4.7 mL; HF [1, 8]: 179.1 ± 12.4 per min.; MVC [1, 8]: 30.8 ± 5.5 mL/min/kg; Number of blood circulations [1, 8]: 2.4 ± 0.3 min; Pr [1, 8]: 244.7 ± 39.1 10^3 . din . c . cm^-3; Stroke volume [1, 8]: 0.6 ± 0.1 mL; ALV [1, 9]: 77.0 ± 17.0 g/cm; AP [1, 9]: 84.2 ± 18.9 mm Hg; Central blood volume [1, 9]: 45.5 ± 5.1 mL; HF [1, 9]: 166.8 ± 15.2 per min.; MVC [1, 9]: 35.7 ± 5.5 mL/min/kg; Number of blood circulations [1, 9]: 3.5 ± 0.2 min; Pr [1, 9]: 245.3 ± 62.6 10^3 . din . c . cm^-3; Stroke volume [1, 9]: 0.7 ± 0.1 mL; MVC increase ([1]; 5 mg/kg i.v., initially): 19%; Effect in hemorrhagic shock in words ([1]; hemorrhagic shock, cats): the decrease in HR was noted; also recorded: SV increased only on the 2nd minute after the medicine injection; also recorded: Alv essentially increased on the 2nd and 10th minutes; also recorded: PR increased during the whole period of observation; also recorded: practically does not lose efficiency in case of metabolic acidosis; also recorded: improves system hemodynamic indices in hemorrhagic shock conditions; also recorded: the peripheral vascular resistance increases, the stroke volume and central blood volume increase, and the work of the left ventricle improves; Asphyxia, animal number ([2]; 36 rats): 0; Generalized cramps, % of animals ([2]; 36 rats): 2.8%; Generalized cramps, animal number ([2]; 36 rats): 1; Lateral position, animal number ([2]; 36 rats): 0; Number of perished rats ([2]; 36 rats): 0; Lung coefficient (lung mass in gr./body mass in gr. X 100) ([2]; Average ± SD, 16 animals): 0.474 ± 0.024; Glucose (blood serum) ([2]; M ± m, n = 16): 5.765 ± 0.214; Hemoglobin (blood serum) ([2]; M ± m, n = 16): 2.028 ± 0.048; Urea (blood serum) ([2]; M ± m, n = 16): 4.643 ± 0.212; Urea Nitrogen (blood serum) ([2]; M ± m, n = 16): 2.163 ± 0.099; Protection at 6 atm in words ([2]; rats, listed as Difetur): improve blood serum biochemical indices; also recorded: efficiently protect lungs from the toxic effect of increased oxygen pressure; also recorded: did not practically effect the hemoglobin content but considerably improved other indices; also recorded: significantly reduced the <<lung mass in gr./body mass>> index; also recorded: completely prevented animals' death and reduced other visible consequences of the oxygen poisoning; AP ([3]; 2 min): 135.0 ± 5.6 mm Hg; HF ([3]; 2 min): 152.4 ± 9.4 per min.; Respiratory contraction frequency ([3]; 2 min): 14.6 ± 3.9 min⁻¹; AP ([3]; 15 min): 118.8 ± 10.3 mm Hg; HF ([3]; 15 min): 146.4 ± 5.6 per min.; Respiratory contraction frequency ([3]; 15 min): 12.4 ± 3.0 min⁻¹; AP ([3]; 30 min): 116.3 ± 4.8 mm Hg; HF ([3]; 30 min): 144.0 ± 5.0 per min.; Respiratory contraction frequency ([3]; 30 min): 11.8 ± 2.3 min⁻¹; AP ([3]; 60 min): 110.0 ± 7.4 mm Hg; HF ([3]; 60 min): 135.6 ± 7.0 per min.; Respiratory contraction frequency ([3]; 60 min): 11.0 ± 1.0 min⁻¹; AP increase ([3]; 5 mg/kg i.v. after prazosin, 2nd minute): 29 mm Hg; AP above the level on the 5th minute after blocker ([3]; 5 mg/kg i.v. after prazosin, 15th minute): 11.8%; AP above the level on the 5th minute after blocker ([3]; 5 mg/kg i.v. after prazosin, 30th minute): 9.4%; Effect under α1-adreno blockade in words ([3]; after prazosin): Statistically significant changes of HR and respiratory movement frequency were not observed; also recorded: increases AP also on the background of α1-adreno blockers though with a lower duration than without them; also recorded: retain its activity in conditions of alpha-adrenergic blockade; Radioprotective effect in words [4]: radioprotective effect; Radioprotective effect in words ([4]; listed as Difetur): distinct radioprotective effect; Bicarbonate ion content increase, arterial blood ([5]; 5 mg/kg i.v., 10th minute): 5%; Bicarbonate ion content increase, arterial blood ([5]; 5 mg/kg i.v., 30th minute): 16%; Bicarbonate ion content (HCO3 a) [5, 7]: 15.583 ± 1.333 mmol/L; Buffer bases (Bba) [5, 7]: 34.150 ± 1.364 mmol/L; Buffer bases shift (Bea) [5, 7]: -7.866 ± 1.095 mmol/L; Carbonic acid gas tension (PaCO2) [5, 7]: 28.616 ± 2.858 mm Hg; Oxygen tension (PaO2) [5, 7]: 94.483 ± 6.012; pHa [5, 7]: 7.252±0.018; Decrease of partial pressure of carbon dioxide (arterial and venous blood) ([5]; 5 mg/kg i.v., 10 minute, vs 30th minute after blood letting): 9%; Bicarbonate ion content (HCO3 a) [5, 8]: 17.083 ± 1.065 mmol/L; Buffer bases (Bba) [5, 8]: 34.966 ± 3.534 mmol/L; Buffer bases shift (Bea) [5, 8]: -8.016 ± 1.436 mmol/L; Carbonic acid gas tension (PaCO2) [5, 8]: 31.083 ± 1.933 mm Hg; Oxygen tension (PaO2) [5, 8]: 95.466 ± 7.144; pHa [5, 8]: 7.310±0.064; Bicarbonate ion content (HCO3 a) [5, 9]: 15.900 ± 3.033 mmol/L; Buffer bases (Bba) [5, 9]: 32.733 ± 5.616 mmol/L; Buffer bases shift (Bea) [5, 9]: -9.450 ± 3.903 mmol/L; Carbonic acid gas tension (PaCO2) [5, 9]: 35.217 ± 7.339 mm Hg; Oxygen tension (PaO2) [5, 9]: 85.550 ± 6.575; pHa [5, 9]: 7.208 ± 0.036; Effect on acid-base balance and blood gases in words ([5]; arterial blood, hemorrhagic shock): does not influence negatively the acid-base balance; also recorded: corrects the metabolic acidosis caused by the loss of blood; also recorded: it had the tendency to increase in the arterial blood, and to decrease in the venous blood; Hypertensive activity, % (increase relative to the initial level of SAP) (arterial blood pressure): 40%; Hypertensive effect in words (arterial blood pressure): one of the most active compounds; also recorded: most active compound; RR (influence on respiratory rate) (arterial blood pressure): increases RR; Time to achieve maximum effect (arterial blood pressure): 2 min; Hypertensive activity (increase of SAP) (arterial blood pressure; given as "> SAP by", listed as S-ethylisothiuronium diethylphosphate): 40 mm Hg; Duration of effect (arterial blood pressure; [10]): 1 to 1.5 h; Hypertensive activity, % (increase relative to the initial level of SAP) (arterial blood pressure; [10]): 40%; Influence on HR (arterial blood pressure; [10]): Bradycardia; RR (influence on respiratory rate) (arterial blood pressure; [10]): Increases

From US6160008A, “Pharmaceutical compositions comprising S-alkylisothiouronium derivatives” (priority 1996, dated 2000)
